The structures appear in SMILES notation.

Sequence of HPK1 (Q92918 whole entry): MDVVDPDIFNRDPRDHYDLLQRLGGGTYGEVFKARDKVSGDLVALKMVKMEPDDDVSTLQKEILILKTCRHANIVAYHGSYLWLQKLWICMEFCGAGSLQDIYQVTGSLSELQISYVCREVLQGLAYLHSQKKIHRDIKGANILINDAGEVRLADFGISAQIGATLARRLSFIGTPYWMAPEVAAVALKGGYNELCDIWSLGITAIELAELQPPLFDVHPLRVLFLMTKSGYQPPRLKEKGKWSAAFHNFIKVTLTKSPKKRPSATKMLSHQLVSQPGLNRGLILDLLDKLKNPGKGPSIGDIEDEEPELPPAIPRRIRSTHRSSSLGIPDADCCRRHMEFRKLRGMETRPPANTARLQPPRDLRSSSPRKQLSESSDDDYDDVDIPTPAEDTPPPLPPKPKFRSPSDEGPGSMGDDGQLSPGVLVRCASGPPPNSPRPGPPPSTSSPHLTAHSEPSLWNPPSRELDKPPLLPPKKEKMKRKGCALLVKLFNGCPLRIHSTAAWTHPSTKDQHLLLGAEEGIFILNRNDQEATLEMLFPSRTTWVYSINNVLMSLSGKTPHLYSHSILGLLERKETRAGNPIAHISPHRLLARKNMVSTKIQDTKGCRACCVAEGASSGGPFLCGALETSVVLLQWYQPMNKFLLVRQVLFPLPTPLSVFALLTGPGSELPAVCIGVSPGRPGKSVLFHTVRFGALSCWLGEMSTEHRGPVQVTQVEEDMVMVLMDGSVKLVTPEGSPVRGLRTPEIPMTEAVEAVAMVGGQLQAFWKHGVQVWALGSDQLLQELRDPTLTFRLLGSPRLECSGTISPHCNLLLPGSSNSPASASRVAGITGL

The target in this experiment is HPK1 (Homo sapiens (Human), UniProt Q92918). Kind of experiment: HPK1 biochemical enzyme assay (microfluidic mobility shift assay). The note with it: 1.5 nM HPK1, ATP 1 mM final, 30 min preincubation, 60 min at RT, Caliper EZ Reader; read-out: HPK1 1000UMATP caliper IC50. The essentials:
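Ten-point compound titrations (top 3 μM final) preincubated 30 min with HPK1 and substrate, then reaction started with 1 mM ATP and 1 μM substrate, 5 mM MgCl2. After 60 min at RT, reaction terminated and product measured by microfluidic mobility shift.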
`Cn1ccc2c(-c3ncc(Nc4ccc([C@@H]5CCOC5)c(CN5CC[C@@H](O)C5)n4)c4c3CNC4=O)ccnc21` [I-809, 7-((6-(((R)-3-hydroxypyrroli-din-1-yl)methyl)-5-((S)-THF-3-yl)pyridin-2-yl)amino)-4-(1-methyl-1H-pyrrolo[2,3-b]pyridin-4-yl)-2,3-dihydro-1H-pyrrolo[3,4-c]pyridin-1-one]: the IC50 (usually the concentration at which inhibition is half-maximal) is less than 100 nM. Consider `Cc1ccn2c(-c3ccc(Nc4ccc(S(C)(=O)=O)cn4)c4c3CNC4=O)cnc2c1` [I-148, 4-(7-methylimidazo [1,2-a]pyridin-3-yl)-7-[(5-methylsulfony 1-2-pyridyl)amino] isoindolin-1-one], for which the IC50 was less than 100 nM. For `O=C1NCc2c(-c3cnc4cc(F)ccn34)ccc(Nc3ccc([C@@H]4CCOC4)c(CN4CC[C@@H](O)C4)n3)c21` [I-784, 4-(7-fluoroimidazo [1,2-a]pyridin-3-yl)-7-((6-(((R)-3-hydroxypyrroli-din-1-yl)methyl)-5-((S)-tetrahydrofuran-3-yl)pyridin-2-yl)amino)isoin-dolin-1-one] the value was less than 100 nM; for `Cn1ccc2c(-c3ccc(Nc4ccc(S(C)(=O)=O)cn4)c4c3CNC4=O)ccnc21` [I-106, 4-(1-methylpyrrolo [2,3-b]pyridin-4-yl)-7-[(5-methylsulfonyl-2-pyridyl)amino] isoindolin-1-one], less than 100 nM; for `C[C@@H](c1ccc(Nc2ccc(-c3cnc4cc(F)ccn34)c3c2C(=O)NC3)nc1)N1CCC[C@H](O)C1` (stereo in doubt) [I-513, 4-(7-f1uoroimidazo [1,2-a]pyridin-3-yl)-7-((5-((S)-1-((S)-3-hydroxypiperidin-1-yl)ethyl)pyridin-2-yl)amino)isoin-dolin-1-one], less than 100 nM.

With `O=C1NCc2c(-c3cnc4cc(F)ccn34)ccc(Nc3ccc([C@H]4CCOC4)c(CNCC(F)(F)F)n3)c21` [I-750, (R)-4-(7-fluoroimidazo [1,2-a]pyridin-3-yl)-7-((5-(tetrahydrofuran-3-yl)-6-(((2,2,2-trifluoroethyl)amino)methyl)pyridin-2-yl)amino)isoin-dolin-1-one], the IC50 was less than 100 nM.

On to `Cn1cc2c(-c3ccc(Nc4ccc(N5CCC(O)CC5)cn4)c4c3CNC4=O)cnc-2cn1` [I-422, 7-((5-(4-hydroxy-piperidin-1-yl)pyridin-2-yl)amino)-4-(5-methyl-5H-pyrrolo[2,3-d]pyridazin-3-yl)isoindolin-1-one], for which the IC50 is 100 to 1000 nM. Turning to `Cc1ccn2c(-c3ccc(Nc4ccc(N5CCC(O)CC5)cn4)c4c3CNC4=O)cnc2c1F` [I-151], the IC50 is less than 100 nM. For `Cn1ccc2c(-c3ncc(Nc4ccc5c(n4)CNCC5)c4c3CNC4=O)ccnc21` [I-413] the value was greater than 1000 nM. In the case of `O=C1NCc2c(-c3cnc4cc(F)ccn34)ccc(Nc3ccc(N4CC[C@@H](F)[C@H](O)C4)cn3)c21` [I-347, 7-((5-((3R,4R)-4-fluoro-3-hydroxy-piperidin-1-yl)pyridin-2-yl)amino)-4-(7-fluoroimidazo [1,2-a]pyridin-3-yl)isoindolin-1-one], the IC50 is less than 100 nM.

As to `O=C1NCc2c(-c3cnc4cnccn34)ccc(Nc3ccc(N4CC[C@H](F)[C@@H](O)C4)cn3)c21` [I-435, 7-((5-((3S,4S)-4-fluoro-3-hydroxypiperidin-1-yl)pyridin-2-yl)amino)-4-(imidazo[1,2-a]pyrazin-3-yl)isoindolin-1-one], the IC50 is less than 100 nM. Consider `CN(C)Cc1nc(Nc2cnc(-c3ccnc4c3ccn4C)c3c2C(=O)NC3)ccc1[C@H]1CCOC1` [I-708, (R)-7-((6-((dimethylamino)methyl)-5-(tetrahydrofuran-3-yl)pyridin-2-yl)amino)-4-(1-methyl-1H-pyrrolo[2,3-b]pyridin-4-yl)-2,3-dihydro-1H-pyrrolo[3,4-c]pyridin-1-one], for which the concentration for half-maximal inhibition (IC50) is less than 100 nM. With `Cc1cnc2[nH]cc(-c3ccc(Nc4ccc(N5CCN(C)CC5)cn4)c4c3CNC4=O)c2c1` [I-30, 7-[[5-(4-methylpiperazin-1-yl)-2-pyridyl]amino]-4-(5-methyl-1H-pyrrolo[2,3-b]pyridin-3-yl)-isoindolin-1-one], the IC50 was in the range of 100 to 1000 nM. `CCNC(=O)c1ccn2c(-c3ccc(Nc4ccc(N5CCC(O)CC5)cn4)c4c3CNC4=O)cnc2c1` [I-195, N-ethyl-3-[7-[[5-(4-hydroxy-1-piperidyl)-2-pyridyl]amino]-1-oxo-isoindolin-4-yl]imidazo[1,2-a]pyridine-7-carboxamide]: the IC50 is 100 to 1000 nM.

With `Cn1ccc2c(-c3ccc(Nc4ccc(N5CCC(O)CC5)cn4)c4c3CNC4=O)cnc-2n1` [I-426, 7-((5-(4-hydroxy-piperidin-1-yl)pyridin-2-yl)amino)-4-(2-methyl-2H-pyrrolo[2,3-c]pyridazin-5-yl)isoindolin-1-one], the IC50 is less than 100 nM.

Take `CN(C)Cc1nc(Nc2ccc(-c3cnc4cc(F)ccn34)c3c2C(=O)NC3)ccc1C1(C)CCOC1` (stereo not shown) [I-843, 7-((6-((dimethylamino)-methyl)-5-(3-methylTHF-3-yl)pyridin-2-yl)amino)-4-(7-fluoroimidazo [1,2-a]pyridin-3-yl)isoindolin-1-one]: the IC50 was less than 100 nM. Under `COC1CN(Cc2nc(Nc3ccc(-c4cnc5cc(F)ccn45)c4c3C(=O)NC4)ccc2[C@H]2CCOC2)C1` [I-548, (R)-4-(7-fluoroimidazo [1,2-a]pyridin-3-yl)-7-((6-((3-methoxyazet-idin-1-yl)methyl)-5-(tetrahydrofuran-3-yl)pyridin-2-yl)amiiio)isoin-dolin-1-one] stands less than 100 nM; under `Cn1ccc2c(-c3ncc(Nc4cccc(N5CCNCC5)n4)c4c3CNC4=O)ccnc21` [I-232, 4-(1-methylpyrrolo [2,3-b]pyridin-4-yl)-7-[(6-piperazin-1-yl-2-pyridyl)amino]-2,3-dihydropyrrolo [3,4-c]pyridin-1-one], less than 100 nM; under `Cn1ccc2c(-c3ccc(Nc4ccc(N5CCNCC5)cn4)c4c3CNC4=O)cccc21` [I-102, 4-(1-methylindol-4-yl)-7-[(5-piperazin-1-yl-2-pyridyl)amino] isoindolin-1-one], less than 100 nM. For the molecule `Cn1ccc2c(-c3ccc(Nc4ccc(N5CC[C@H](O)C5)cn4)c4c3CNC4=O)ccnc21` [I-285, (S)-7-((5-(3-hydroxy-pyrrolidin-1-yl)pyridin-2-yl)amino)-4-(1-methyl-1H-pyrrolo[2,3-b]pyridin-4-yl)isoindolin-1-one], the IC50 was less than 100 nM. Under `Cc1cn(C)c2nccc(-c3ccc(Nc4ccc(N5CCNCC5)cn4)c4c3CNC4=O)c12` [I-98] stands less than 100 nM.

Take `O=C1NCc2c(-c3cnc4cnccn34)ccc(Nc3ccc(N4CCC[C@H](O)C4)cn3)c21` [I-169, 7-[[5-[(3S)-3-hydroxy-1-piperipyl]-2-pyridyl]amino]-4-imidazol[1,2-a]pyrazin-3-yl-isoindolin-1-one]: the IC50 is less than 100 nM.

`CNC1CCN(c2ccc(Nc3ccc(-c4cnc5cc(C)ccn45)c4c3C(=O)NC4)nc2)CC1` [I-71, 7-[[5-[4-(methylamino)-1-piperidyl]-2-pyridyl]amino]-4-(7-methylimidazo [1,2-a]pyridin-3-yl)isoindolin-1-one]: the IC50 was less than 100 nM. Take `CN1CCN(c2ccc(Nc3ccc(-c4c[nH]c5cccnc45)c4c3C(=O)NC4)nc2)CC1` [I-26, 7-((5-(4-methylpiperazin-1-yl)pyridin-2-yl)amino)-4-(1H-pyrrolo[3,2-b]pyridin-3-yl)isoindolin-1-one]: the IC50 was in the range of 100 to 1000 nM. Take `O=C1NCc2c(-c3cnc4cc(F)ccn34)ccc(Nc3ccc([C@@H]4CCOC4)c(CN4CC[C@H](O)C4)n3)c21` [I-779, 4-(7-fluoroimidazo[1,2-a]pyridin-3-yl)-7-((6-(((S)-3-hydroxypyrrolidin-1-yl)methyl)-5-((S)-tetrahydrofuran-3-yl)pyridin-2-yl)amino)isoindolin-1-one]: the IC50 is less than 100 nM. In the case of `CC1(C)CNCCN1Cc1ccc(Nc2ccc(-c3cnc4c(F)c(C(F)F)ccn34)c3c2C(=O)NC3)nc1` [I-655, 4-(7-(difluoromethvl)-8-fluoroimidazo [1,2-a]pyridin-3-yl)-7-((5-((2,2-dimethylpiperazin-1-yl)methyl)pyridin-2-yl)amino)isoin-dolin-1-one], the IC50 was less than 100 nM. For `Cn1ccc2c(-c3ccc(Nc4ccc(N5CCC(O)CC5)cn4)c4c3C(C)(C)NC4=O)ccnc21` [I-282, 7-((5-(4-hydroxypiper-idin-1-yl)pyridin-2-yl)amino)-3.3-dimethyl-4-(1-methyl-1H-pyrrolo[2,3-b]pyridin-4-yl)isoindolin-1-one], the IC50 was greater than 1000 nM. Regarding `O=C1NCc2c(-c3cnc4cnccn34)ccc(Nc3ccc(N4CCOCC4)cn3)c21` [I-153, 4-imidazo[1,2-a]pyrazin-3-yl-7-[(5-morpholino-2-pyridyl)amino] isoindolin-1-one], the IC50 is less than 100 nM.

As for `COC[C@H]1CN(c2ccc(Nc3cnc(-c4ccnc5c4ccn5C)c4c3C(=O)NC4)nc2CN(C)C)CCO1` [I-798, (R)-7-((6-((dimethylamino)-methyl)-5-(2-(methoxymeth-yl)morpholino)pyridin-2-yl)amino)-4-(1-methyl-1H-pyrrolo[2,3-b]pyridin-4-yl)-2,3-dihydro-1H-pyrrolo[3,4-c]pyridin-1-one], the IC50 is less than 100 nM.

Turning to `CC1COc2c(-c3ccc(Nc4ccc(N5CCN(C)CC5)cn4)c4c3CNC4=O)cnn2C1` (stereo in doubt) [I-259, (R)-4-(6-methyl-6,7-dihydro-5H-pyrazolo[5,1-b][1,3]oxazin-3-yl)-7-((5-(4-methylpiperazin-1-yl)pyridin-2-yl)amino)isoin-dolin-1-one], the IC50 lay within 100 to 1000 nM. For `CN(C)Cc1cc(Nc2ccc(-c3cnc4cc(Cl)ccn34)c3c2C(=O)NC3)ncc1C1(O)CCOCC1` [I-633, 4-(7-chloroimidazo [1,2-a]pyridin-3-yl)-7-((4-((dimethylamino)-methyl)-5-(4-hydroxytetra-hydro-2H-pyran-4-yl)pyridin-2-yl)amino)isoin-dolin-1-one], the IC50 was less than 100 nM.

These data come from patent publication US11021481B2, “Substituted isoindolin-1-ones and 2,3-dihydro-1h-pyrrolo[3,4-c]pyridin-1-ones as HPK1 antagonists” (Nimbus Saturn, Inc., priority 2019, dated 2021).
